Results from the Kinase Knowledgebase extract (Sharma et al. 2016).

Key:
EGFR (human) [1] = target: EGFR (human) (UniProt P00533); assay: Assessment of DiFi Cell Growth Inhibition by MTS Assay
EGFR (human) [2] = target: EGFR (human) (UniProt P00533); conditions: huvec
EGFR = EGFR (UniProt P00533)
EGFR, sequence (P00533 whole entry, looked up): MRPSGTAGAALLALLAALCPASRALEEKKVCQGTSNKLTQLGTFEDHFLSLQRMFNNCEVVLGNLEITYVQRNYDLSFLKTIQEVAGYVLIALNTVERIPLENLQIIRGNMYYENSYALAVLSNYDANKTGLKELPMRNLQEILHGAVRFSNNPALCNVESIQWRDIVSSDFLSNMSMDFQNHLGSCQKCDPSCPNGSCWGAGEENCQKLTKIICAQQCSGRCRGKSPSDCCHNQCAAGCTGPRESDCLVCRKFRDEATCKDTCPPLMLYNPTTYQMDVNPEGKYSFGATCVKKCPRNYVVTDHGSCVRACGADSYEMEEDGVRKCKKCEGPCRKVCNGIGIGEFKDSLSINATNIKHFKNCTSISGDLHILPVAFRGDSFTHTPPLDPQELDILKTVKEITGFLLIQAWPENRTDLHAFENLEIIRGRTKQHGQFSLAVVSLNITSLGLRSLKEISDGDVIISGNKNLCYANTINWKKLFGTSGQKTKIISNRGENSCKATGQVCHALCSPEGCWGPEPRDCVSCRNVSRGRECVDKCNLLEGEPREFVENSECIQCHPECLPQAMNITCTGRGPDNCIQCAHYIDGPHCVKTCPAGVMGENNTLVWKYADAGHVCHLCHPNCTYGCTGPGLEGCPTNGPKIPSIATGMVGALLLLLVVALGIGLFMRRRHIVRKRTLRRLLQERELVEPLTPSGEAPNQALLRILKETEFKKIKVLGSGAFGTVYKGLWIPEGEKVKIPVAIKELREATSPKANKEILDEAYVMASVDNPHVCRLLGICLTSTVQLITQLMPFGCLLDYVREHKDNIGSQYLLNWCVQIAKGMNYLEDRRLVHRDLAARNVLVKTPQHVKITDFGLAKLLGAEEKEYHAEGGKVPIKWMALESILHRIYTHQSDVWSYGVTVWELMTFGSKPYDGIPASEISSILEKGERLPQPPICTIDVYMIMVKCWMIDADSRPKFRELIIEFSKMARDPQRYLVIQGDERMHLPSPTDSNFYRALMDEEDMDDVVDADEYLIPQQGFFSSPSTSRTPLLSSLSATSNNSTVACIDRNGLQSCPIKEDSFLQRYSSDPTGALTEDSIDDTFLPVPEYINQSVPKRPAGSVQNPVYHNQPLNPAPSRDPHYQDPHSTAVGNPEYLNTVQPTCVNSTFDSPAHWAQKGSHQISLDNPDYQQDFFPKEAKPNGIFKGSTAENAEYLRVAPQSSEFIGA

EGFR (human), sequence (P00533 whole entry, looked up): as above

Row | SMILES | IC50 (EGFR (human) [1]) | IC50 (EGFR (human) [2]) | IC50 (EGFR)
1 | Cc1cc2c(Nc3ccc(C)c(O)c3)ncnn2c1 | > 10000 nM | – | –
2 | Cc1ccn2ncnc(Nc3ccc(F)c(Cl)c3)c12 | 3060 nM | 602 nM | –
3 | Cc1ccc(Nc2ncnn3c(C)ccc23)cc1O | > 10000 nM | 101 nM | –
4 | Cc1ccc(Nc2ncnn3ccc(C)c23)cc1O | > 10000 nM | 270 nM | –
5 | Fc1ccc(Nc2ncnn3cccc23)cc1Cl | 1840 nM | 345 nM | 118 nM
6 | Cc1ccc(Nc2ncnn3cccc23)cc1O | > 10000 nM | – | –
7 | Cc1ccc(Nc2ncnn3cc(C)c(C)c23)cc1O | > 10000 nM | – | –
8 | Cc1cc2c(Nc3ccc(F)c(Cl)c3)ncnn2c1 | 1600 nM | 509 nM | –
9 | Cc1ccc2c(Nc3ccc(F)c(Cl)c3)ncnn12 | > 10000 nM | > 2500 nM | –
